Our source for the MIC50 and IC50 values is patent publication EP2929883A1, “Pyrazole derivatives as dihydroorotate dehydrogenase (DHODH) inhibitors” (INSTITUT PASTEUR, priority 2014, dated 2015).

Values after ≈ are worked out from the molar mass of the structure shown.

The subject of the first test is measles virus. Nature of the test: microbe, parasite or virus in culture. Particulars: Measles morbillivirus, 24 h.
In the case of `CCc1cnc(-n2nc(OC(C)C)c(Oc3c(F)cccc3F)c2C)c(F)c1` [example 5A, 2-(4-(2,6-difluorophenoxy)-3-isopropoxy-5-methyl-1H-pyrazol-1-yl)-5-ethyl-3-fluoropyridine], the MIC50 fell in the range of 0.05 to 0.5 µM (≈ 0.0196 to 0.196 µg/mL).
Take `Cc1nn(-c2ccc(Br)cn2)c(OC(C)C)c1Oc1c(F)cccc1F` [example 60, 5-bromo-2-(4-(2,6-difluorophenoxy)-5-isopropoxy-3-methyl-1H-pyrazol-1-yl)pyridine]: the MIC50 was > 5 µM.
For the compound `CC(C)Oc1nn(-c2ncc(C3CC3)cn2)cc1Oc1ccccc1` [example 100, 5-cyclopropyl-2-(3-isopropoxy-4-phenoxy-1H-pyrazol-1-yl)pyrimidine], the MIC50 is 0.05 to 0.5 µM (≈ 0.0168 to 0.168 µg/mL).
Same read-out and setting: in the case of `CCOc1nn(-c2ncc(CC)cn2)c(C)c1Oc1ccc(C(F)(F)F)cc1` [example 83, 2-(3-ethoxy-5-methyl-4-(4-(trifluoromethyl)phenoxy)-1H-pyrazol-1-yl)-5-ethylpyrimidine] it was > 5 µM; in that of `COc1cnc(-n2nc(OC(C)C)c(Oc3c(F)cccc3F)c2C)cn1` [example 173, 2-(4-(2,6-difluorophenoxy)-3-isopropoxy-5-methyl-1H-pyrazol-1-yl)-5-methoxypyrazine], 0.5 to 5 µM (≈ 0.188 to 1.88 µg/mL); in that of `CCCc1cnc(-n2nc(OC(C)C)c(Oc3c(F)cccc3F)c2C)nc1` [example 6, 2-(4-(2,6-difluorophenoxy)-3-isopropoxy-5-methyl-1H-pyrazol-1-yl)-5-propylpyrimidine], 0.0005 to 0.05 µM (≈ 0.000194 to 0.0194 µg/mL).
The compound `Cc1c(Oc2ccccc2F)c(OC(C)C)nn1-c1ccc(C2CC2)cn1` [example 69, 5-cyclopropyl-2-(4-(2-fluorophenoxy)-3-isopropoxy-5-methyl-1H-pyrazol-1-yl)pyridine] gave an MIC50 of 0.0005 to 0.05 µM (≈ 0.000184 to 0.0184 µg/mL).
Compound `Cc1c(Oc2cccc(F)c2)c(OC(C)C)nn1-c1ccc(C2CC2)cn1` [example 97, 5-cyclopropyl-2-(4-(3-fluorophenoxy)-3-isopropoxy-5-methyl-1H-pyrazol-1-yl)pyridine] returned an MIC50 of 0.05 to 0.5 µM (≈ 0.0184 to 0.184 µg/mL).
On the same count and under the same terms, the figure for `CCOc1nn(-c2ccccn2)c(C)c1-c1ccccc1Cl` [example 155, 2-(4-(2-chlorophenyl)-3-ethoxy-5-methyl-1H-pyrazol-1-yl)pyridine] is > 5 µM; for `CCc1cnc(-n2nc(OC(C)C)c(Oc3cc(F)ccc3F)c2C)nc1` [example 19, 2-(4-(2,5-difluorophenoxy)-3-isopropoxy-5-methyl-1H-pyrazol-1-yl)-5-ethylpyrimidine] it is 0.0005 to 0.05 µM (≈ 0.000187 to 0.0187 µg/mL).
Take `CCOc1nn(-c2cc(C)ccn2)c(C)c1Cc1ccccc1` [example 32, 2-(4-benzyl-3-ethoxy-5-methyl-1H-pyrazol-1-yl)-4-methylpyridine]: the MIC50 lay in the range of 0.5 to 5 µM (≈ 0.154 to 1.54 µg/mL).
Regarding `CCOc1nn(-c2nccc(C)n2)c(C)c1Cc1ccccc1` [example 113, 2-(4-benzyl-3-ethoxy-5-methyl-1H-pyrazol-1-yl)-4-methylpyrimidine], the MIC50 was in the range of 0.5 to 5 µM (≈ 0.154 to 1.54 µg/mL).
Regarding `CCOc1nn(-c2ccc(C(C)C)cn2)c(C)c1Cc1ccccc1` [example 170, 2-(4-benzyl-3-ethoxy-5-methyl-1H-pyrazol-1-yl)-5-isopropylpyridine], the MIC50 was in the range of 0.5 to 5 µM (≈ 0.168 to 1.68 µg/mL).
The same measure, in the same setting: the figure for `CCC(CC)Oc1nn(-c2ncc(C3CC3)cn2)c(C)c1Cc1ccccc1` [example 141, 2-(4-benzyl-5-methyl-3-(pentan-3-yloxy)-1H-pyrazol-1-yl)-5-cyclopropylpyrimidine] is 0.0005 to 0.05 µM (≈ 0.000188 to 0.0188 µg/mL).
Take `COc1cc(-c2ccc(Cl)c(Cl)c2)n(-c2ccccn2)n1` [example 143, 2-(5-(3,4-dichlorophenyl)-3-methoxy-1H-pyrazol-1-yl)pyridine]: the MIC50 is > 5 µM.
Compound `CCOc1nn(-c2ccc(C3CC3)cn2)c(C)c1Oc1ccc(C(F)(F)F)cc1` [example 94, 5-cyclopropyl-2-(3-ethoxy-5-methyl-4-(4-(trifluoromethyl)phenoxy)-1H-pyrazol-1-yl)pyridine] showed an MIC50 of 0.5 to 5 µM (≈ 0.202 to 2.02 µg/mL).
As for `CCOc1nn(-c2ccccn2)cc1-c1ccc(Cl)cc1` [example 157, 2-(4-(4-chlorophenyl)-3-ethoxy-1H-pyrazol-1-yl)pyridine], the MIC50 is > 5 µM.
In the case of `Cc1c(Cc2ccccc2)c(=O)n(-c2ncc(Br)cn2)n1-c1ncc(Br)cn1` [example 44, 4-benzyl-1,2-bis(5-bromopyrimidin-2-yl)-5-methyl-1H-pyrazol-3(2H)-one], the MIC50 fell in the range of 0.5 to 5 µM (≈ 0.251 to 2.51 µg/mL).
Still for that read-out and setting: the figure for `CCOc1cc(-c2ccc(OC)cc2)n(-c2ccccn2)n1` [example 145, 2-(3-ethoxy-5-(4-methoxyphenyl)-1H-pyrazol-1-yl)pyridine] is > 5 µM; for `CCOc1nn(-c2ccc(C3CC3)cn2)c(C)c1Oc1ccccc1C(F)(F)F` [example 56, 5-cyclopropyl-2-(3-ethoxy-5-methyl-4-(2-(trifluoromethyl)phenoxy)-1H-pyrazol-1-yl)pyridine] it is 0.05 to 0.5 µM (≈ 0.0202 to 0.202 µg/mL); for `CCOc1nn(-c2ccc(C3CC3)cn2)c(C)c1Oc1ccccc1Br` [example 55, 2-(4-(2-bromophenoxy)-3-ethoxy-5-methyl-1H-pyrazol-1-yl)-5-cyclopropylpyridine] it is 0.0005 to 0.05 µM (≈ 0.000207 to 0.0207 µg/mL).
For `Cc1c(Oc2c(F)cccc2F)c(OC(C)C)nn1-c1cnc(C(C)(C)C)nc1` [example 131, 2-tert-butyl-5-(4-(2,6-difluorophenoxy)-3-isopropoxy-5-methyl-1H-pyrazol-1-yl)pyrimidine], the MIC50 is 0.05 to 0.5 µM (≈ 0.0201 to 0.201 µg/mL).
Compound `CC(C)Oc1nn(-c2ccc(C3CC3)cn2)cc1C(=O)c1ccccc1` [example 109, (1-(5-cyclopropylpyridin-2-yl)-3-isopropoxy-1H-pyrazol-4-yl)(phenyl)methanone] registered an MIC50 of 0.5 to 5 µM (≈ 0.174 to 1.74 µg/mL).
`Cc1c(Oc2ccccc2F)c(OC(C)C)nn1-c1ncc(C2CC2)cc1F` [example 53, 5-cyclopropyl-3-fluoro-2-(4-(2-fluorophenoxy)-3-isopropoxy-5-methyl-1H-pyrazol-1-yl)pyridine] registered an MIC50 of 0.05 to 0.5 µM (≈ 0.0193 to 0.193 µg/mL).
`c1ccc(Oc2cn(-c3ccc(C4CC4)cn3)nc2C2CC2)cc1` [example 120, 5-cyclopropyl-2-(3-cyclopropyl-4-phenoxy-1H-pyrazol-1-yl)pyridine] displayed an MIC50 of 0.05 to 0.5 µM (≈ 0.0159 to 0.159 µg/mL).
The same measure, in the same setting: the figure for `CC(C)Oc1nn(-c2ncc(C3CC3)cc2C#N)cc1Oc1ccccc1` [example 75, 5-cyclopropyl-2-(3-isopropoxy-4-phenoxy-1H-pyrazol-1-yl)nicotinonitrile] is > 5 µM; for `Cc1c(Oc2ccc(F)cc2F)c(OC(C)C)nn1-c1ccc(C2CC2)cn1` [example 17, 5-cyclopropyl-2-(4-(2,4-difluorophenoxy)-3-isopropoxy-5-methyl-1H-pyrazol-1-yl)pyridine] it is 0.05 to 0.5 µM (≈ 0.0193 to 0.193 µg/mL).
`CCc1cnc(-n2nc(OC(C)C)c(Oc3cccc(F)c3)c2C)nc1` [example 54, 5-ethyl-2-(4-(3-fluorophenoxy)-3-isopropoxy-5-methyl-1H-pyrazol-1-yl)pyrimidine] registered an MIC50 of 0.05 to 0.5 µM (≈ 0.0178 to 0.178 µg/mL).
In turn, `CC(=O)c1ccc(-n2nc(OC(C)C)c(Oc3c(F)cccc3F)c2C)nc1` [example 87, 1-(6-(4-(2,6-difluorophenoxy)-3-isopropoxy-5-methyl-1H-pyrazol-1-yl)pyridin-3-yl)ethanone] displayed an MIC50 of 0.05 to 0.5 µM (≈ 0.0194 to 0.194 µg/mL).
The same measure, in the same setting: in the case of `Cc1c(Oc2ccccc2F)c(OC(C)C)nn1-c1ncc(C2CC2)cc1C#N` [example 52, 5-cyclopropyl-2-(4-(2-fluorophenoxy)-3-isopropoxy-5-methyl-1H-pyrazol-1-yl)nicotinonitrile] it was 0.05 to 0.5 µM (≈ 0.0196 to 0.196 µg/mL); in that of `CCOc1ccn(-c2ncc(CC)cn2)n1` [example 166, 2-(3-ethoxy-1H-pyrazol-1-yl)-5-ethylpyrimidine], 0.5 to 5 µM (≈ 0.109 to 1.09 µg/mL); in that of `CCOc1nn(-c2ccc(C3CC3)cn2)c(C)c1Oc1ccccc1` [example 92, 5-cyclopropyl-2-(3-ethoxy-5-methyl-4-phenoxy-1H-pyrazol-1-yl)pyridine], 0.05 to 0.5 µM (≈ 0.0168 to 0.168 µg/mL).
On the same count and under the same terms, in the case of `COc1cc(C2CC2)cnc1-n1nc(OC(C)C)c(Oc2c(F)cccc2F)c1C` [example 189, 5-cyclopropyl-2-(4-(2,6-difluorophenoxy)-3-isopropoxy-5-methyl-1H-pyrazol-1-yl)-3-methoxypyridine] it was 0.0005 to 0.05 µM (≈ 0.000208 to 0.0208 µg/mL); in that of `CCOc1nn(-c2ncc(Br)cc2F)c(C)c1Cc1ccccc1` [example 40, 2-(4-benzyl-3-ethoxy-5-methyl-1H-pyrazol-1-yl)-5-bromo-3-fluoropyridine], 0.5 to 5 µM (≈ 0.195 to 1.95 µg/mL).
On the same count and under the same terms, in the case of `CC(C)Oc1nn(-c2ncc(C3CC3)cn2)c(Cl)c1Oc1ccccc1F` [example 192, 2-(5-chloro-4-(2-fluorophenoxy)-3-isopropoxy-1H-pyrazol-1-yl)-5-cyclopropylpyrimidine] it was 0.0005 to 0.05 µM (≈ 0.000194 to 0.0194 µg/mL).
In turn, `CCOc1nn(-c2ccc(C3CC3)cn2)c(C)c1Oc1ccccc1Cl` [example 63, 2-(4-(2-chlorophenoxy)-3-ethoxy-5-methyl-1H-pyrazol-1-yl)-5-cyclopropylpyridine] had an MIC50 of 0.0005 to 0.05 µM (≈ 0.000185 to 0.0185 µg/mL).
Still for that read-out and setting: the figure for `CCOc1nn(-c2ncc(CC)cn2)c(C)c1-c1ccc(F)cc1F` [example 154, 2-(4-(2,4-difluorophenyl)-3-ethoxy-5-methyl-1H-pyrazol-1-yl)-5-ethylpyrimidine] is > 5 µM; for `CCOc1nn(-c2ccccn2)c(C)c1-c1ccc(OC)cc1` [example 160, 2-(3-ethoxy-4-(4-methoxyphenyl)-5-methyl-1H-pyrazol-1-yl)pyridine] it is > 5 µM.
Still for that read-out and setting: the figure for `Cc1cnc(-n2nc(OC(C)C)c(Oc3c(F)cccc3F)c2C)nc1` [example 47, 2-(4-(2,6-difluorophenoxy)-3-isopropoxy-5-methyl-1H-pyrazol-1-yl)-5-methylpyrimidine] is 0.0005 to 0.05 µM (≈ 0.00018 to 0.018 µg/mL).
In turn, `CCc1cnc(-n2nc(OC(C)C)c(Cc3ccc(OC)cc3)c2C)nc1` [example 111, 5-ethyl-2-(3-isopropoxy-4-(4-methoxybenzyl)-5-methyl-1H-pyrazol-1-yl)pyrimidine] yielded an MIC50 of 0.05 to 0.5 µM (≈ 0.0183 to 0.183 µg/mL).
Consider `CCOc1nn(-c2ccc(C3CC3)cn2)c(C)c1C(C)(O)c1ccccc1` (stereo not drawn) [example 178, 1-(1-(5-cyclopropylpyridin-2-yl)-3-ethoxy-5-methyl-1H-pyrazol-4-yl)-1-phenylethanol], for which the MIC50 was 0.5 to 5 µM (≈ 0.182 to 1.82 µg/mL).

Staying with this test, now noted: Measles morbillivirus, HEK-293T, read-out: IC50 on the measles virus.
What is called IC50 is the concentration at which inhibition is half-maximal. For `Cc1c(-c2ccc(-c3ccccc3F)cc2)nc2ccc(F)cc2c1C(=O)O` [brequinar, reference compound], the IC50 was 40 nM.
